From PMC10385865, “Synthesis and Anticancer Activity of Novel Dual Inhibitors of Human Protein Kinases CK2 and PIM-1” (Pharmaceutics, 2023)
pKi: −log10 of the molar value.

What was measured:
human CK2α = target: T1, human CK2α (Homo sapiens, UniProt P68400); assay: P81 filter isotopic (radiometric) kinase assay, CK2 catalytic subunit; assay type: biochemical; details: substrate peptide […], Ki from IC50 by Cheng–Prusoff
T1 construct: made in house
Method: (§1) The obtained compounds were tested for their inhibitory activity toward human CK2α, human CK2 holoenzyme, and PIM-1 using a P81 filter isotopic assay as described previously. […] The experimental data were fitted to the sigmoidal dose–response equation, i.e., (variable slope) Y = Bottom + (Top-Bottom)/(1 + 10^((LogIC50−X)∗HillSlope), in GraphPad Prism (Prism 9, v. 9.0.1).
(§2) Inhibition of the human CK2 catalytic subunit (CK2α), CK2 holoenzyme (CK2α2β2), and PIM-1 by the newly obtained compounds was evaluated using a radiometric assay (Table 1, Figure S2). The synthetic peptide […] was used as the substrate of CK2, and peptide […] was used as the substrate of PIM-1. The values of the inhibition constant (Ki) were calculated using the Cheng–Prusoff equation: Ki = IC50/(1 + [S]/Km).

[1] = target: T2, human CK2 holoenzyme (CK2α2β2) (Homo sapiens, UniProt P68400); assay: P81 filter isotopic (radiometric) kinase assay, CK2 holoenzyme; assay type: biochemical; details: substrate peptide […], Ki from IC50 by Cheng–Prusoff
T2 construct: made in house
Method: as §1, §2

CCRF-CEM cells = assay: Mitochondrial membrane potential (ΔΨm) assay, JC-1, flow cytometry; assay type: cell-based, human; details: 10 µM, 48 h
Method: Mitochondrial membrane potential was assessed by flow cytometry using 5,5′,6,6′-tetrachloro-1,1′,3,3′-tetraethylbenzimidazolocarbocyanine iodide (JC-1; Sigma-Aldrich, St. Louis, MO, USA). JC-1 undergoes potential-dependent accumulation in mitochondria. In healthy cells, the dye accumulates in mitochondria, forming aggregates with red fluorescence (FL-2 channel), whereas in dead and apoptotic cells, the dye remains in the cytoplasm in a monomeric form and emits green fluorescence (FL-1 channel). Cells were harvested by centrifugation 48 h post treatment, suspended in 1 mL of complete culture medium at approximately 1 × 10^6 cells/mL, and incubated with 2.5 µL of JC-1 solution in DMSO (1 mg/mL) for 15 min at 37 °C in the dark. The stained cells were then washed with cold PBS, suspended in 400 µL of PBS, and examined by flow cytometry.
The most significant effect, i.e., 45% of cells with reduced ΔΨm, was obtained in cells treated with 10 µM conc. of rac-6.

[2] = tested on: phosphorylation of Ser112 in BAD (marker of PIM-1 activity), MCF-7; assay: Western blot/densitometry, intracellular PIM-1 inhibition, MCF-7; assay type: cell-based, human; details: MCF-7, 10 µM, 48 h, densitometry
Method: (§3) All the procedures are described in detail in Supplementary Materials (Section S3.3). The protein concentration was determined using a Bradford assay.
(§4) For densitometry, immunoblots were scanned using G Box Chemi (Syngene, Cambridge, UK), and the density of each lane of phosphorylated and total protein was quantified using GeneSys software (Syngene, Cambridge, UK). Phosphorylated protein densities were normalized to GAPDH densities, assuming 1 for untreated cells; then, they were converted to a percentage of the appropriate control.
(§5) The data obtained for p65 confirmed the intracellular inhibition of CK2 by the tested compounds in all the studied cell lines in a dose-dependent manner. […] Otherwise, Western blot data for BAD (a marker of PIM-1 activity) indicated inhibition of PIM-1 only in MCF-7 cells, with the most significant reduction in phosphorylated BAD in cells treated with 10 µM conc. of rac-6 (0.49 of control) (Figure 8b). Unexpectedly, the relative level of BAD-P in the drug-treated CCRF-CEM and K-562 cells was even higher than in control cells.
(§6) The following primary antibodies were used: anti-GAPDH (Millipore, St. Louis, MO, USA; […]
(§7) overnight, +4°C); anti-BAD (Apoptosis I Sampler Kit, # 612741, BD Biosciences, San Diego, CA, USA; 1:1000, overnight, +4°C), anti-phospho-BAD-Ser112 (CST, Beverly, MA, USA; 9291S, 1:500 overnight, +4°C). […]

[3] = tested on: phosphorylation of Ser112 in BAD (marker of PIM-1 activity), CCRF-CEM; assay: Western blot/densitometry, intracellular PIM-1 inhibition, CCRF-CEM; assay type: cell-based, human; details: 48 h
Method: as §3, §4, §5, §6, §7

T2 sequence (P68400 whole entry): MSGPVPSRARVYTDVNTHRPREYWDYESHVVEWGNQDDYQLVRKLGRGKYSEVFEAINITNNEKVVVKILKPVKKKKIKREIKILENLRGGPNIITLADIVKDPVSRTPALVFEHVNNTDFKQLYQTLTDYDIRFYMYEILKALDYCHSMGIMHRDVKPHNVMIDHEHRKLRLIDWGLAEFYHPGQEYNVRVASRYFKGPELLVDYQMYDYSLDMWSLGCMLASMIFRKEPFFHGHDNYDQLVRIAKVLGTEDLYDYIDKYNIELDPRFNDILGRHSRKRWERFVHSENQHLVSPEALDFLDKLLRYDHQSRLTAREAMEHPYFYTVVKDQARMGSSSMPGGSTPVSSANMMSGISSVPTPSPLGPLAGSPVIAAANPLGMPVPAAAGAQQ
T2 sequence (P67870 whole entry partner): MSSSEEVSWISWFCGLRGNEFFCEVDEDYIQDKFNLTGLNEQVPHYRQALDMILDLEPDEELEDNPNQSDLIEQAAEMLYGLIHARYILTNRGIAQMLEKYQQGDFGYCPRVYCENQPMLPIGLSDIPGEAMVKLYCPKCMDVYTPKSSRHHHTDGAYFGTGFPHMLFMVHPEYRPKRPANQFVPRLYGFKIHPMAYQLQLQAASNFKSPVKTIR
T1 sequence (P68400 whole entry): as the sequence (P68400 whole entry) above

OC(CNc1nc2c(Br)c(Br)c(Br)c(Br)c2[nH]1)C(F)(F)F (racemic) [rac-6, 1,1,1-Trifluoro-3-[(4,5,6,7-tetrabromo-1H-benzimidazol-2-yl)amino]propan-2-ol]
pKi (human CK2α): 6.53
pKi [1]: 6.95
cells with reduced ΔΨm (CCRF-CEM cells): 45%
phosphorylated BAD, relative level [2]: 0.49 of control
level of phosphorylated BAD (in words) [3]: increased level of phosphorylated BAD
